Target: T1, human serum albumin (HSA) (Homo sapiens, UniProt P02768)
T1 construct: gene ALB
Experiment: fluorescence turn-on titration with HSA (one-site fit), Job's plot […], displacement assay
Type: binding

T1 sequence (P02768 25-609): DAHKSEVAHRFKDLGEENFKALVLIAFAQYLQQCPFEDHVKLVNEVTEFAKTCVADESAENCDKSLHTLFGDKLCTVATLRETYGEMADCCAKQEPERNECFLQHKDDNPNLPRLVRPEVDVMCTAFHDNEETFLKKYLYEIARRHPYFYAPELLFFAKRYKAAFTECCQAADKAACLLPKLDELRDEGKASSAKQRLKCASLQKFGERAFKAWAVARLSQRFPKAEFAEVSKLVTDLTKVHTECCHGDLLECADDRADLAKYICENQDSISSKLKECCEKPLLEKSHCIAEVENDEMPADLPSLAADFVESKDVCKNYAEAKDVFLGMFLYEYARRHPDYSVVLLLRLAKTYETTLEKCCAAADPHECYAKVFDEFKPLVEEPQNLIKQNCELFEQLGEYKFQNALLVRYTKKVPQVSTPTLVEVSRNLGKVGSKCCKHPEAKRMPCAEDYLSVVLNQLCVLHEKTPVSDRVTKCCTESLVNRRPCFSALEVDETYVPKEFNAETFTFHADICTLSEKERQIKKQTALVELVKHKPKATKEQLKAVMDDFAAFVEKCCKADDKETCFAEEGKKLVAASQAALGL

Kd: 15.4 ± 3.3 µM
SMILES: CN(C)c1ccc(/C=C/C=C/C=C(\C#N)C(=O)c2cccc(Cl)c2)s1 [compound 5, (2E,4E,6E)-2-(3-chlorobenzoyl)-7-(5-(dimethylamino)thiophen-2-yl)hepta-2,4,6-trienenitrile]

Reference: article PMC7070906, “A Near-infrared Turn-on Fluorescent Sensor for Sensitive and Specific Detection of Albumin from Urine Samples” (Sensors (Basel, Switzerland), 2020)
